This is an account of results in publication PMC11768481 (Pharmaceuticals, 2024).

Read-outs that look alike come from different tables or passages of the source.

Series [1] has as its system T. cruzi Querétaro strain trypomastigotes. The series can be described thus: In vitro infection of HFF-1 monolayers with trypomastigotes; release of trypomastigotes on the 5th day. Type of series: cell-based. The following applies: Trypanosoma cruzi; for IC50: HFF-1, monotherapy, release of trypomastigotes, Queretaro strain, 5th day, read-out: IC50 Monotherapy T. cruzi i.v. Infection. The text has this:
To evaluate the effects of the antidiabetics alone, a model of in vitro infection with trypomastigotes of monolayers of human foreskin fibroblasts 1 (HFF-1) was used as described in the methodology; the criterium to determine efficacy was the ability to decrease the trypomastigotes’ release after the 4th–5th day post-infection. The T. cruzi Querétaro strain (TBAR/MX/0000/Querétaro) was used, which is classified in the Tc1 group, and is characterized by its high degree of virulence.
In 24-well tissue culture plates, 2 × 10^4 HFF-1 cells in 0.5 mL of DMEM + 10% FBS were deposited in each well and incubated at 37 °C for 24 h for adherence. Next, the incubation medium was changed to DMEM + 2% FBS (0.5 mL), and 3 × 10^5 trypomastigotes were added to infect cells for 2 h at 37 °C. After the incubation, the cells were vigorously washed three times with DMEM + 2% FBS to remove uninternalized trypomastigotes, taking care to preserve the monolayer integrity. Then, the infected cells were incubated in DMEM + 2% FBS for 4–5 days in the absence or presence of BNZ (0, 0.05, 0.1, 0.2, 0.5 µM) and antidiabetics (0, 1, 10, 25, 50 µM) in monotherapy; the drug compounds were purchased from SIGMA. For bi-therapy, the same concentrations of BNZ were used in the presence of 0.5 or 1 µM of antidiabetics. […] In every independent assay, a control of infected cells without BNZ or antidiabetics was always included, which served as no treatment. The number of released mobile trypomastigotes on the 5th day was determined by light microscopy using a Neubauer chamber.
(§1) For the IC50 calculation, individual data curves were fitted to the dose–response equation: y=A1+(A2−A1)/(1+10^(logx0−x)×p), where A1 < A2; p > 0; bottom asymptote: A1 = 1; top asymptote: A2 = 2; center: logx0 = −1; hill slope: p = 0.2; or logistic equation y=A2+(A1−A2)/(1+x/x0)^p, where A1 = initial value, A2 = final value, x0 = center and p = power using the Origin 8 Software. The IC50 values were manually selected from the curves fit.

A further series deals with HFF-1 cells. The series can be described thus: HFF-1 host cell growth after 5 days (Trypan blue exclusion count). Type of series: cell-based, human. The following applies: for IC50: Homo sapiens, HFF-1, 120 h, monotherapy, HFF-1 growth, 5 days, read-out: IC50 Monotherapy HFF-1 (n = 3). The protocol: For HFF-1 IC50 evaluation, BNZ and the antidiabetic were varied as described above for the infection cultures, and cell proliferation was determined on the 5th day of growth, and the viability was determined by 0.2% Trypan blue exclusion (Corning Inc.; Corning, NY, USA). Briefly, the cells were washed twice with PBS-EDTA and later trypsinized for detachment. The cell suspension was homogenized with 150 µL of DMEM + 2% FBS, and an aliquot of 50 µL was diluted 1:1 with the solution of Trypan blue. The number of viable cells was counted using a Neubauer chamber under a microscope.
as §1

The next series has as its system T. cruzi Ninoa strain. Description: Short-term monotherapy in mice infected with T. cruzi; blood trypomastigote count. Type of series: in vivo, CD1 mice. To be noted: single dose 100 mg/kg, intragastric, at peak of parasitemia, 8 h compared to time 0. How it is done: The effect of the antidiabetic drugs and BNZ in the clearance of blood trypomastigotes in mice infected with T. cruzi in acute drug treatment in monotherapy was evaluated. Trypanosoma cruzi Ninoa strain was used for these experiments; this strain is classified in the Tc1 group like the Querétaro strain [27]; Ninoa is characterized by lower virulence and therefore lower mortality in mice compared to the Querétaro strain [28]. However, epimastigotes of Ninoa strain are more resistant to BNZ [27]. Then, the T. cruzi Ninoa strain seems to be a more appropriate parasitic source to evaluate drug susceptibility in mice.
Mice of the CD1 strain were infected with Ninoa strain (MHOM/MX/1994/Ninoa) following modified protocols previously reported. Briefly, blood trypomastigotes obtained from an infected mouse were diluted with 0.9% saline solution at a density of 1 × 10^5 trypomastigotes/mL, and 0.1 mL were intraperitoneally inoculated in mice weighing 30–40 g. […] After reaching a parasitemia peak of 22 × 10^6 blood trypomastigotes/mL (12–18 days post-inoculation), the mice were separated into 5 groups of 3 mice each for drug treatment (for bioethical requirements, the number of animals used was kept at a minimum, and 3 mice per group was sufficient to perform statistical analysis). BNZ and antidiabetic drugs at a concentration of 100 mg/kg weight; doses of 3.16–3.79 mg (depending on the weight of the mice) were administered, diluted in 0.5 mL of vehicle (Arabic gum at 4%, diluted in purified water) using an intragastric tube. Then, 5 µL of blood were immediately extracted from the caudal vein (t = 0), and blood sampling was performed every 2 h up to 8 h. Trypomastigotes were counted using a modified protocol of that reported by Pizzi–Brenner, as reported before. […] The criterion for evaluating efficacy was the percentage of trypanocidal effect at 8 h compared to time 0.

Series [2] relates to T. cruzi Querétaro strain epimastigotes. The series can be described thus: Thiol metabolites (Cys, GSH, T(SH)2) in epimastigotes by HPLC. In kind it is cell-based, Trypanosoma cruzi. To be noted: 1 µM drug alone, 24 h. The protocol:
Since thiol metabolite determination requires high amounts of biological material, the thiol determination content was performed in epimastigotes of the Queretaro strain. A 0.2 L culture of LIT medium was inoculated with epimastigotes at a density of 0.7 × 10^6 parasites/mL. The culture was incubated for 72 h at 28 °C, reaching, at the exponential growth phase, a concentration of 3 × 10^6 parasites/mL. The culture was separated into 8 aliquots of 25 mL, and 1 µM BNZ was added alone or in combination with 1 µM of the antidiabetic drugs. The cultures were incubated for 24 h at 28 °C. Subsequently, 1 mL of each sample was separated for protein determination, and the rest was used for thiol determination. Both samples were centrifuged at 20,817× g for 10 min; the pellets were washed twice with PBS. The pellets for protein were resuspended in 100 µL of Lowry’s solution A (2% Na2CO3, 0.4% NaOH, 0.16% Na-K tartrate, 1% SDS) and stored at −70 °C until protein determination using the Lowry method. The parasite pellets for thiol metabolite determination were immediately lysed by incubation in liquid nitrogen and stored at −70 °C.
Thiol determination was performed as described before. Cell lysates were thawed and resuspended in 90 µL of lysis buffer (20 mM Hepes, 1 mM EDTA, 0.15 mM KCl at pH 7), 20 mM DTT was added to each sample, and three cycles of freezing in liquid nitrogen and thawing at 37 °C were performed. The samples were centrifuged at 20,817× g for 10 min, and the supernatant was reduced with 2% sodium borohydride (NaBH4) and incubated for 10 min on ice. Then, perchloric acid was added at a final concentration of 3%, and the sample was centrifuged at 20,187× g for 2 min. The supernatant was filtered through a syringe-driven filter unit (0.45 µm) (Millipore; Carrigtwohill, County Cork, Ireland) and 20 µL of the eluate was injected in a high-performance liquid chromatography (HPLC) apparatus (Waters; Milford, MA, USA). The metabolites were separated in a C18 reverse-phase column (Altima, Columbia, MD, USA) using a mixture of acetonitrile—0.1% trifluoroacetic acid and a flux of 0.5 mL/min. The thiol metabolites were post-column derivatized with 0.1 mM di-thio-bis nitrobenzoic acid (DTNB), and the absorbance was detected at 412 nm with a UV-Vis detector coupled to the HPLC apparatus.

Another series deals with T. cruzi epimastigotes. The following applies: cited from earlier work.
On the set-up of series [3]: method as in PMID 28673423, PMID 32592664, PMID 33043726. To be noted: ref 1, 7, 8; cited from earlier work.
Another series relates to Leishmania. The following applies: alone; cited from earlier work.
The subject of series [4] is Leishmania donovani promastigotes. On the set-up: method as in PMID 30827222. The following applies: ref 23; cited from earlier work.
A further series deals with Echinococcus granulosus. On the set-up: method as in PMID 29190739. To be noted: monotherapy; cited from earlier work.
Setting [5] is: ref 15, read-out: IC50 on the growth of epimastigotes.

As to `O=C(Cn1ccnc1[N+](=O)[O-])NCc1ccccc1` [BNZ, benznidazole], in series [1] (HFF-1, read-out: inhibition of infection), the inhibition at 0.2 µM amounted to 40%. Besides, the IC50 was 0.26 ± 0.01 µM in [1]; 0.9 ± 0.09 µM in the series with HFF-1 cells; 5.54 µM in the series with T. cruzi epimastigotes (CLBrener strain, read-out: IC50 on growth of epimastigotes); 8.21 µM in the series with T. cruzi epimastigotes (Ninoa strain, read-out: IC50 on growth of epimastigotes); 4.29 µM in the series with T. cruzi epimastigotes (Querétaro strain, read-out: IC50 on growth of epimastigotes); 12 ± 2 µM in the series with T. cruzi epimastigotes (ref 25, read-out: IC50 on the growth of epimastigotes). In addition, the IC50 in the series on T. cruzi epimastigotes (ref 38, read-out: IC50 on the growth of epimastigotes) is 9.4 ± 1.3 µM. In the series on HFF-1 cells (0.26 µM BNZ in monotherapy), the “decrease of the growth of host cells” value is 20%. The “decrease of the infection (blood trypomastigotes)” value (shortened to “decrease of the infection”) in the series with T. cruzi Ninoa strain amounted to 80%. Also, the Cys level result in [2] is listed as “slightly decrease”. Also, the “T(SH)2 level” value in [2] is “not observed”. In addition, in series [3], the “rate of treatment interruption” value was 9–29%.
For the molecule `COc1ccc(Cl)cc1C(=O)NCCc1ccc(S(=O)(=O)NC(=O)NC2CCCCC2)cc1` [GBD, glyburide], the half-maximal inhibitory concentration (IC50) in [1] is 8.4 ± 6.3 µM. In the series with T. cruzi Ninoa strain, the “decrease of the infection” value was found to be 60%. Also, in [2], the Cys level result is given as “increased”, the GSH level entry is given as “decreased” and the “T(SH)2 level” value is reported as “decreased”. Also, in the series on T. cruzi epimastigotes (setting [5]), the IC50 was 66 µM. In addition, the “effect on Leishmania infection” value in the series with Leishmania is “decreased the infection”. Further, in series [4], the “growth of Leishmania donovani promastigotes” value was “decreased their growth”. In addition, the “activity on Echinococcus granulosus infection in mice” value with Echinococcus granulosus is “anti-helmintic activity”.
`COc1ccc2c(c1)C(=O)N(CCc1ccc(S(=O)(=O)NC(=O)NC3CCCCC3)cc1)C(=O)C2(C)C` [GLQ, gliquidone]: in series [1], the IC50 stood at 7.6 ± 2 µM. Moreover, the “decrease of the infection” value in the series on T. cruzi Ninoa strain is reported as “lower effect than BNZ”. Also, in [2], the Cys level entry is recorded as “increased”, the GSH level result was “decreased” and the “T(SH)2 level” value is given as “decreased”. Moreover, the IC50 with T. cruzi epimastigotes (setting [5]) was 12 µM.
As to `Cc1cnc(C(=O)NCCc2ccc(S(=O)(=O)NC(=O)NC3CCCCC3)cc2)cn1` [GPZ, glipizide], the IC50 in series [1] is 14.3 ± 7 µM. The IC50 in the series on HFF-1 cells was 35 ± 19 µM. In the series on T. cruzi Ninoa strain, the “decrease of the infection” value was 60%. Besides, in [2], the Cys level result is given as “decreased”, the “T(SH)2 level” value is recorded as “increased” and the “decrease in Cys” value is recorded as around 50%. Also, in the series on T. cruzi epimastigotes (setting [5]), the IC50 was 13.4 µM.
With `CC1CS(=O)(=O)CCN1/N=C/c1ccc([N+](=O)[O-])o1` (stereo not drawn) [nifurtimox], in series [3], the “rate of treatment interruption” value is 14–75%.

By inhibition is commonly meant the share of the control response that was lost under treatment. As a reminder, the IC50 is the point on the concentration scale where inhibition reaches its midpoint.
